Molecular target: T1, Endothelin-converting enzyme 1 (Homo sapiens) (UniProt P42892)
T1 sequence (whole entry): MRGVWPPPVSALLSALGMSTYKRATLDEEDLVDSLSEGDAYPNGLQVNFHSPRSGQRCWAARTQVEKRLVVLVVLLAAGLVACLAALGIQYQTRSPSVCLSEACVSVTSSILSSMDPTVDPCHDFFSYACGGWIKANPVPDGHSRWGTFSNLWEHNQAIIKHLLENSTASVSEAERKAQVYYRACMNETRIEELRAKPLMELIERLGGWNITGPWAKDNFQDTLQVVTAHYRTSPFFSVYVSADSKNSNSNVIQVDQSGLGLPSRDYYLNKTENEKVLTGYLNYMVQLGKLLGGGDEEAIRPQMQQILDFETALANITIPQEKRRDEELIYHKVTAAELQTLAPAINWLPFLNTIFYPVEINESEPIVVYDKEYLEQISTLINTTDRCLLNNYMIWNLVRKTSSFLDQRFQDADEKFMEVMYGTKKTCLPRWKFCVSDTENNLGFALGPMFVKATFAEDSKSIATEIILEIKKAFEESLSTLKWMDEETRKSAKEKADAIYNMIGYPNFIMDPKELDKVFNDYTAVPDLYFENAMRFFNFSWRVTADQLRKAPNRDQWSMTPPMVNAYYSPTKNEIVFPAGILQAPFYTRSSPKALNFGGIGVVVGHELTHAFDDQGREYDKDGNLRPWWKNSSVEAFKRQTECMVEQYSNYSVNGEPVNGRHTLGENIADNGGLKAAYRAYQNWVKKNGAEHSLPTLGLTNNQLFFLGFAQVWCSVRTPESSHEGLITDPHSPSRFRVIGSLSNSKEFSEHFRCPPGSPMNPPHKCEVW
Experiment: In vitro inhibitory activity was tested against Endothelin converting enzyme 1 at a concentration of 1 uM

| Compound | inhibition |
| --- | --- |
| CC(C)[C@H](S)C(=O)NC1(C(=O)N[C@@H](Cc2ccccc2-c2ccccc2)C(=O)O)CCCC1 | 0% |
| CC(C)[C@H](S)C(=O)NC1(C(=O)N[C@@H](Cc2ccccc2)C(=O)O)CCCC1 | 26% |
| CC(C)[C@H](S)C(=O)NC1(C(=O)N[C@H](Cc2ccc(-c3ccccc3)cc2)C(=O)O)CCCC1 | 18% |
| CC(C)[C@H](S)C(=O)NC1(C(=O)N[C@@H](Cc2ccc(-c3ccc(C(F)(F)F)cc3)cc2)C(=O)O)CCCC1 | 54% |
| CC(C)[C@H](S)C(=O)NC1(C(=O)N[C@@H](Cc2cccc(-c3ccccc3)c2)C(=O)O)CCCC1 | 39% |
| CC(C)[C@H](S)C(=O)NC1(C(=O)NC(Cc2ccc(-c3ccncc3)cc2)C(=O)O)CCCC1 (stereo partly drawn) | 22% |
| CC(C)[C@H](S)C(=O)NC1(C(=O)N[C@@H](Cc2ccc(-c3ccccc3)cc2)C(=O)O)CCCC1 | 77% |
| COc1ccc(-c2ccc(C[C@H](NC(=O)C3(NC(=O)[C@@H](S)C(C)C)CCCC3)C(=O)O)cc2)cc1 | 49% |

Molecular target: T2, Endothelin-converting enzyme 1 (Homo sapiens, UniProt P42892)
T2 sequence (P42892 whole entry): T1 sequence (whole entry)
Experiment: In vitro inhibitory activity was tested against Endothelin converting enzyme 1

| Compound | IC50 |
| --- | --- |
| CC(C)[C@H](S)C(=O)NC1(C(=O)NC(Cc2ccc(-c3ccccn3)cc2)C(=O)O)CCCC1 (stereo partly drawn) | 220 nM |
| CC(C)[C@H](S)C(=O)NC1(C(=O)NC(Cc2ccc(-c3cncnc3)cc2)C(=O)O)CCCC1 (stereo partly drawn) | 120 nM |
| CC(C)[C@H](S)C(=O)NC1(C(=O)NC(Cc2ccc(-c3cccnc3)cc2)C(=O)O)CCCC1 (stereo partly drawn) | 150 nM |
| COc1cc(OC)cc(-c2ccc(CC(NC(=O)C3(NC(=O)[C@@H](S)C(C)C)CCCC3)C(=O)O)cc2)c1 (stereo partly drawn) | 990 nM |
| COc1cccc(-c2ccc(CC(NC(=O)C3(NC(=O)[C@@H](S)C(C)C)CCCC3)C(=O)O)cc2)c1OC (stereo partly drawn) | 350 nM |
